For test [1], the target named is T1, human δ-opioid receptor (DOR) (Homo sapiens, UniProt P41143).
T1 construct: expressed in transfected cells; host or cells: CHO cells (provided by Dr. Selley, Virginia Commonwealth University)
In words: competitive radioligand binding assay, DOR. The conditions noted are these: CHO cell membranes; mean ± SEM (n ≥ 3).

Another test concerns the target T2, KOR (Mus musculus, UniProt P33534).
T2 construct: expressed in transfected cells; host or cells: CHO cells (provided by Dr. Selley, Virginia Commonwealth University)
Kind of test: competitive radioligand binding assay, KOR. To be noted: CHO cell membranes; mean ± SEM (n ≥ 3).

A further test has as its target T3, MOR (Mus musculus, UniProt P42866).
T3 construct: expressed in transfected cells
Kind of test: [35S]-GTPγS functional assay at MOR. In kind it is biochemical. The conditions noted are these: relative to 3 μM DAMGO; mean ± SEM (n ≥ 3). Background: Binding of GTPγS marks nucleotide exchange on a G protein.

Each structure is given as a SMILES string.

This note sets out measurements from paper PMC12910667, “Investigating the Landscape of C6-Azaindole Side Chain on the Epoxymorphinan Skeleton via the Nitrogen Walk Concept: A Strategy to Enhance Drug-Like Properties” (Journal of Medicinal Chemistry, 2026).

Consider `O=C(N[C@H]1CC[C@@]2(O)[C@H]3Cc4ccc(O)c5c4[C@@]2(CCN3CC2CC2)[C@H]1O5)c1cccc2cc[nH]c12` [NAN, 17-cyclopropylmethyl-3,14β-dihydroxy-4,5α-epoxy-6α-(indole-7-carboxamido)morphinan], for which the Ki in test [1] came to 13.7 ± 1.39 nM; on KOR it was 1.69 ± 0.35 nM. Besides, the “MOR [35S]-GTPγS binding % Emax of DAMGO” value at MOR is 19.11 ±3.31%.

Usually Ki stands for the equilibrium dissociation constant of an inhibitor or competing ligand from its target.
